Drawing on the pKa sets of Baltruschat and Czodrowski (2020), this text covers pKa for 97 compounds.

Where a SMILES comes first, the peptide text is derived from it.

As a reminder, the pKa is the pH at which an ionisable group is half protonated.

The compound `Cc1ccc2c(c1)C(CC[NH3+])CN2` (configuration not stated) registered a pKa (basic group) of 4.1. `N#CC(C#N)=NNc1ccc(/N=N/c2ccccc2)cc1`: the pKa was 7.33 (acidic group) and -0.87 (basic group). The compound `C[NH+](C)Cc1cc(F)cc(C[NH+](C)C)c1O` registered a pKa (acidic group) of 5.77. `Nc1ccc2c(c1)Cc1c(F)cccc1-2` came in with a pKa (basic group) of 3.54. `C=C(C)C(=O)OCCCN`: the pKa (basic group) turned out to be 9.62.

As to `O=c1c(O)c1-c1ccccc1`, the pKa (acidic group) came to 2.01. The compound `Cc1cnccc1N` returned a pKa (basic group) of 9.15. `C[C@@H]1N[C@@H]1C` gave a pKa (basic group) of 5.34. The compound `CCCCCCCCCCCCCCN(CC(O)CC)CC(O)CC` (configuration not stated) gave a pKa (basic group) of 5.7. As to `CCNC(=O)c1ccccn1`, the pKa (basic group) is 2.4. Still for that read-out and setting: to `Cc1cc(C)c2ccc3cccnc3c2n1` belongs 5.96; to `NC(=O)C[C@H](NC(=O)[C@@H](N)CS)C(=O)O` (H-Cys-Asn-OH), 7.05. The compound `Cc1cccc(I)c1C(=O)O` came in with a pKa (acidic group) of 2.7. Still for that read-out and setting: to `O=S(O)CCCCc1ccccc1` belongs 2.23. Regarding `Cc1ccc(N)cc1`, the pKa (basic group) worked out at 5.04. In the case of `CC(=O)CC(=S)Nc1ccc(C)cc1`, the pKa (acidic group) was found to be 7.65.

For the compound `CC(=O)Oc1ccccc1C(=O)NCC(=O)O`, the pKa (basic group) amounted to 3.77.

Compound `CC(C)=CCC1C(=O)C(C(=O)CC(C)C)C(=O)C(CC=C(C)C)(CC=C(C)C)C1=O` (configuration not stated) came in with a pKa (acidic group) of 6.18. With `CCC(=O)SCCN(C)C`, the pKa (basic group) came to 8.28.

Regarding `O=C1C(=O)C(c2ccccc2)C1=O`, the pKa (acidic group) was 0.37.

For `CCCCN1CCCCC1`, the pKa (basic group) was 10.5. Same read-out and setting: to `Cc1cc(N)ccn1` belongs 9.44. In turn, `Nc1ccc(S(=O)(=O)Nc2nccs2)cc1/N=N/c1ccccc1` had a pKa (acidic group) of 5.85.

As to `CN1CCc2cccc(c2)CCc2ccc1cc2`, for the setting “basic group”, the pKa was determined as 6.76.

Compound `CCN(CC)CCCNS(=O)(=O)c1ccc(OC)c(OC)c1OC` displayed a pKa (basic group) of 9.54. `Cc1cccc(C(=O)N(C)O)c1` showed a pKa (acidic group) of 8.52. In turn, `S=C(Nc1ccc(Br)cc1)c1ccccc1` had a pKa (acidic group) of 10.4. Take `O=S1(=O)Cc2cc(Br)ccc2N=CN1`: the pKa (acidic group) is 9.3. Consider `S=CNCc1ccccc1`, for which the pKa (acidic group) is 12.3. `Nc1ccnc2c1ncn2CCOCP(=O)(O)O` yielded a pKa (basic group) of 5.49. Still for that read-out and setting: to `CCN(CC)CC(O)CO` (configuration not stated) belongs 9.77; to `Nc1ccc2ncncc2c1`, 3.29. The compound `[O-]c1ccnc2cccnc12` returned a pKa (basic group) of 10.

Turning to `C=CC(CC(C)(C)C)c1ccc2cccnc2c1O` (configuration not stated), the pKa was determined as 9.8 (acidic group) and 4.94 (basic group). Take `N[C@@H]1C[C@@H]1N`: for the setting “basic group”, the pKa worked out at 9.04. The same measure, in the same setting: to `Nc1cc(/C=C/c2ccccc2)nc2ccccc12` belongs 9.3.

Compound `O/N=C1\CCCCC\C1=N/O` yielded a pKa (acidic group) of 10.7. With `CC1(C)[C@H]2CC[C@@]1(C)[C@@H](O)[C@H]2C(=O)O`, the pKa (acidic group) came to 2.05. For the compound `Cc1ncnc2nc[nH]c12`, the pKa is 9.21 (acidic group) and 2.6 (basic group).

In turn, `N[C@H]1CCCCC[C@@H]1O` displayed a pKa (basic group) of 9.35. `CCCC[NH+](CCS)CCCC`: the pKa (acidic group) is 7.76. The compound `COc1cc2c(cc1OC)C13CCN4C1CC1C(=CCOC5CC(=O)N2C3C51)[C@@H]4S(=O)(=O)[O-]` (some centres not stated) showed a pKa (basic group) of 3.12.

Under “acidic group”, `NC(=O)C(N)Cc1ccccc1` (configuration not stated) gave a pKa of 7.33.

The compound `CC(C)(C)CCC(=O)O` returned a pKa (acidic group) of 4.83.

`N[C@@H]1C[C@@H]2CCCC[C@H]2C[C@@H]1N`: the pKa (basic group) was 9.93.

In turn, `OCc1cccnc1` displayed a pKa (basic group) of 5. The compound `Cc1ccc(C(=O)/C=C/C(=O)O)cc1` showed a pKa (acidic group) of 3.44. For `CN1C[C@@H](C(=O)[O-])C[C@@]2(O)c3cccc4[nH]cc(c34)C[C@@H]12`, the pKa (basic group) worked out at 9.2.

`CCCCN1CCCC1` came in with a pKa (basic group) of 10.4. Turning to `COc1ccc(C=O)cc1O`, where the note is “acidic group”, the pKa turned out to be 8.89. For the compound `CCCCN(C(=O)c1ccc(O)cc1)c1ccc(/N=N/c2ccc3c(c2)OCCOCCOCCOCCOCCO3)cc1`, for the setting “acidic group”, the pKa came out at 9.12.

For the compound `c1ccc(C(CCN2CCOCC2)c2ccccc2)cc1`, the pKa (basic group) was determined as 7.25. For the setting “acidic group”, `Nc1cc[nH+]c2c(O)cccc12` yielded a pKa of 6.91.

For the setting “acidic group”, `CNc1nnn[nH]1` gave a pKa of 6.06.

Consider `Nc1nc(N)nc(N)n1`, for which the pKa (basic group) is 5.06. `C/C=C/c1ccc2cccnc2c1O`: the pKa by setting is: (acidic group) 11.3; (basic group) 4.66.

Regarding `CC(C)(N)C(=O)O`, under “basic group”, the pKa worked out at 10.2. On to `CC(C)(C)[NH2+]CC(=O)c1ccc(O)cc1`, for which the pKa (acidic group) came out at 7.9. As to `Cc1ccc2ncccc2c1`, the pKa (basic group) is 5.1. As for `CN(CCO)CCO`, the pKa (basic group) was 8.51. For `On1nnc2ccc(Br)cc21`, the pKa (acidic group) turned out to be 3.97. The compound `Cc1cc([N+](=O)[O-])ccc1C(=O)O` displayed a pKa (acidic group) of 2.91.

Regarding `Nc1ncc2[nH]c(-c3ccccc3)nc2n1`, the pKa was 9.2 (acidic group) and 3.98 (basic group). Compound `C[S+](C)c1cccc(O)c1` displayed a pKa (acidic group) of 7.67.

In turn, `Oc1ccccc1CNC1CCCCC1` gave a pKa (basic group) of 8.67. Compound `CC(C)(C)c1cc(N)cc(C(C)(C)C)c1[N+](=O)[O-]` showed a pKa (basic group) of 2.93. `Oc1cc[nH+]c(O)c1`: where the note is “acidic group”, the pKa was 1.37.

For `C[NH+](C)Cc1cc(Cl)cc(C[NH+](C)C)c1O`, under “acidic group”, the pKa came to 5.2.

`C#C[C@]1(O)C[C@H](C)N[C@@H]2CCCC[C@H]21`: the pKa (basic group) worked out at 9.63. `[NH3+][C@H]1CONC1=O`: the pKa (acidic group) was 4.54. `CCCOC(=O)c1ccc(N)cc1`: the pKa (basic group) came out at 2.49. `CCC(=O)c1nc(C(=O)O)cs1` displayed a pKa (acidic group) of 3.7. Same read-out and setting: to `C/C(=N/O)c1ccc([O-])cc1O` belongs 9.72. For `CON(C)C`, for the setting “basic group”, the pKa is 3.65. In the case of `CN[C@H]1C[C@H]1NC`, the pKa (basic group) was found to be 8.73. For the compound `Oc1cccc2cn[nH]c12`, the pKa (acidic group) came to 8.6. Regarding `CCN(CC)CCN(CC)CC`, the pKa (basic group) amounted to 9.55. Same read-out and setting: to `CCCNC(=O)[C@H](Cc1c[nH]cn1)NC(=O)c1cccc(CNCC[NH3+])n1` belongs 6.5; to `[NH3+]NC(=O)c1ccncc1`, 1.85. Compound `[NH3+]C1(C(=O)O)CCCCC1` registered a pKa (acidic group) of 2.66.

Compound `Cc1ccc(NC(=S)c2cccc(Br)c2)cc1` had a pKa (acidic group) of 10.9. Turning to `NS(=O)(=O)c1ccc(C(=O)O)cc1`, the pKa (acidic group) came out at 3.53. Under “basic group”, `C[NH+]1C[C@H](C(=O)O)C[C@@]2(O)c3cccc4[nH]cc(c34)C[C@H]12` gave a pKa of 3.94. Compound `C#CC(C)(C)N(C)C(C)C` showed a pKa (basic group) of 8.7. On the same count and under the same terms, to `CC(C)N(CCC(c1ccccc1)c1ccccn1)C(C)C` (configuration not stated) belongs 10.5. On the same count and under the same terms, to `CNCC/C(N)=N/O` belongs 9.6. Under “basic group”, `Cc1ccc2c(c1)ncn2[C@H]1OC[C@H](O)[C@@H](O)[C@@H]1O` gave a pKa of 4.17. Where the note is “acidic group”, `O=Nc1ccc(O)cc1` gave a pKa of 6.2. The same measure, in the same setting: to `Cc1cc([N+](=O)[O-])ccc1O` belongs 7.1. For `CCc1ccnnc1C`, the pKa (basic group) stood at 4.03. `Cc1ccc([Se]O)c([N+](=O)[O-])c1` gave a pKa (acidic group) of 10.7. Where the note is “basic group”, `Cc1ccc(NCC[NH2+]c2ccc(C)cc2)cc1` gave a pKa of 2.7. Take `NC(=O)C1CCCCN1` (configuration not stated): where the note is “acidic group”, the pKa is 8.9. As to `C1CNCCNCCCNCCNC1`, the pKa (basic group) was 11.1. Where the note is “acidic group”, `[NH3+]Cc1ccc(C(=O)O)cc1` yielded a pKa of 3.59. Consider `O=C([O-])C#CCN1CCOCC1`, for which, for the setting “basic group”, the pKa worked out at 5.57.

Take `OCNc1ccc(Cl)cc1`: for the setting “basic group”, the pKa amounted to 2.22.
